This is an account of results in US7776847B2, “Benzisothiazoles useful for treating or preventing HCV infection” (priority 2005, dated 2010).

Structures are written as SMILES. Where two headings read alike, the source gives them in different places.

The assay has as its system HCV replicon. Nature of the assay: HCV replicon luciferase reporter assay. It counts as cell-based. Conditions: Hepatitis C virus. How it is done: The inhibitory activity of certain exemplary compounds of the invention was confirmed using an HCV replicon assay. The HCV replicon can include such features as the HCV IRES, the HCV 3′ untranslated region, selected HCV genes encoding HCV polypeptides, selectable markers, and a reporter gene such as luciferase, GFP, etc. In the assay, actively dividing replicon-comprising cells were seeded at a density of between about 5,000 and 7,500 cells/well onto 96 well plates (about 90 μl of cells per well) and incubated at 37° C. and 5% CO2 for 24 hours. Then, the test compound (in a volume of about 10 μL) was added at various concentrations to each well and the cells were incubated for an additional 24-48 hours. The cells were harvested, and HCV replication or translation was monitored via a reporter assay, e.g., a luciferase reporter assay. The media was aspirated from each cell and Bright-Glo ([…].) luciferase assay reagents were added to each well according to the manufacturer's instructions. In this assay, the amount of test compound that yielded a 50% reduction in luciferase activity (IC50) was determined.
On the technique in general: In antiviral work, replicon cells carry a viral genome segment that copies itself.

`COc1ccc(-c2ccc(CN(CCCNc3nsc4ccccc34)C(=O)CS(C)(=O)=O)cc2)cc1` [Compound 339, N-(3-(benzo[d]isothiazol-3-ylamino)propyl)-N-((4′-methoxybiphenyl-4-yl)methyl)-2-(methylsulfonyl)acetamide]: the IC50 (Table 5, read-out: IC50) was less than 5 µM.

On to `COc1ccc(-c2ccc(CNCCCNc3nsc4ccccc34)cc2)cc1` [Compound 291, N^1-(benzo[d]isothiazol-3-yl)-N^3-((4′-methoxybiphenyl-4-yl)methyl)propane-1,3-diamine], for which the 50% inhibitory concentration (IC50) (Table 5, read-out: IC50) was less than 5 µM. The same measure, in the same setting: to `O=C(NCCNc1nsc2ccccc12)c1cccc(Cl)c1` [Entry 33, N-(2-(Benzo[d]isothiazol-3-ylamino)ethyl)-3-chlorobenzamide] belongs more than 5 µM; to `c1cncc(CNCCCNc2nsc3ccccc23)c1` [Compound 308, N^1-(benzo[d]isothiazol-3-yl)-N^3-(pyridin-3-ylmethyl)propane-1,3-diamine], more than 5 µM. Regarding `O=C(N[C@@H](C(=O)NCCNc1nsc2ccccc12)c1ccccc1)c1ccc(Cl)cc1` [Compound 348, (R)-N-(2-(2-(benzo[d]isothiazol-3-ylamino)ethylamino)-2-oxo-1-phenylethyl)-4-chlorobenzamide], the IC50 (Table 5, read-out: IC50) was less than 5 µM. As for `COc1ccc(-c2cccc(C(=O)NCCCNc3nsc4ccccc34)n2)c(OC)c1` [Compound 438, N-(3-(benzo[d]isothiazol-3-ylamino)propyl)-6-(2,4-dimethoxyphenyl)picolinamide], the IC50 (Table 5, read-out: IC50) was less than 5 µM. On the same count and under the same terms, as for `COc1cccnc1NCCCNc1nsc2ccccc12` [Compound 275, N^1-(benzo[d]isothiazol-3-yl)-N^3-(3-methoxypyridin-2-yl)propane-1,3-diamine], the figure is less than 5 µM; as for `CCCCc1ccc(NC(=O)NCCCNc2nsc3ccccc23)cc1` [Compound 379, 1-(3-(benzo[d]isothiazol-3-ylamino)propyl)-3-(4-butylphenyl)urea], less than 5 µM; as for `CCCc1ccc(C(=O)NCCCNc2nsc3ccccc23)cc1` [Compound 273, N-(3-(benzo[d]isothiazol-3-ylamino)propyl)-4-propylbenzamide], less than 5 µM. On the same count and under the same terms, to `Cc1ccnc(NCCCNc2nsc3ccccc23)c1` [Entry 227, N-(3-(4-methylpyridin-2-ylamino)propyl)benzo[d]isothiazol-3-amine] belongs less than 5 µM; to `O=C(NCCNc1nsc2ccccc12)c1cc(-c2ccccc2)n[nH]1` [Compound 413, N-(2-(benzo[d]isothiazol-3-ylamino)ethyl)-3-phenyl-1H-pyrazole-5-carboxamide], more than 5 µM. Same read-out and setting: as for `COc1ccc(-c2ccc(CN(CCCNc3nsc4ccccc34)C(=O)N3CCOCC3)cc2)cc1` [Compound 314, N-(3-(benzo[d]isothiazol-3-ylamino)propyl)-N-((4′-methoxybiphenyl-4-yl)methyl)morpholine-4-carboxamide], the figure is less than 5 µM. On to `COc1cc(F)ccc1-c1ccc(NC(=O)NCCCNc2nsc3ccccc23)cc1` [Compound 393, 1-(3-(benzo[d]isothiazol-3-ylamino)propyl)-3-(4′-fluoro-2′-methoxybiphenyl-4-yl)urea], for which the half-inhibitory concentration (IC50) (Table 5, read-out: IC50) was less than 5 µM.

With `O=C(NCCCNc1nsc2ccccc12)c1cccc(Br)n1` [Compound 419, N-(3-(benzo[d]isothiazol-3-ylamino)propyl)-6-bromopicolinamide], the half-inhibitory concentration (IC50) (Table 5, read-out: IC50) is less than 5 µM.

With `O=C(NCCNc1nsc2ccccc12)c1c(Cl)cccc1Cl` [Entry 41, N-(2-(Benzo[d]isothiazol-3-ylamino)ethyl)-2,6-dichlorobenzamide], under “Table 5, read-out: IC50”, the IC50 was more than 5 µM. Same read-out and setting: as for `FC(F)(F)c1ccnc(NCCCNc2nsc3ccccc23)c1` [Entry 231, N^1-(benzo[d]isothiazol-3-yl)-N^3-(4-(trifluoromethyl)pyridin-2-yl)propane-1,3-diamine], the figure is less than 5 µM; as for `CC(C)Nc1ccc(C(=O)NCCCNc2nsc3ccccc23)cc1` [Compound 298, N-(3-(benzo[d]isothiazol-3-ylamino)propyl)-4-(isopropylamino)benzamide], less than 5 µM; as for `O=S(=O)(NCCCNc1nsc2ccccc12)c1cccc2cccnc12` [Compound 249, N-(3-(benzo[d]isothiazol-3-ylamino)propyl)quinoline-8-sulfonamide], less than 5 µM. Turning to `CCCCc1ccc(C(=O)NC(CNc2nsc3ccccc23)C(=O)O)cc1` (stereo not drawn) [Compound 280, 3-(benzo[d]isothiazol-3-ylamino)-2-(4-butylbenzamido)propanoic acid], the half-maximal inhibitory concentration (IC50) (Table 5, read-out: IC50) is more than 5 µM. On the same count and under the same terms, as for `c1ccc(-c2ncc(CNCCCNc3nsc4ccccc34)[nH]2)cc1` [Compound 329, N^1-(benzo[d]isothiazol-3-yl)-N^3-((2-phenyl-1H-imidazol-4-yl)methyl)propane-1,3-diamine], the figure is less than 5 µM; as for `COc1ccc(-c2ccc(S(=O)(=O)NCCCNc3nsc4ccccc34)cc2)cc1OC` [Compound 332, N-(3-(benzo[d]isothiazol-3-ylamino)propyl)-3′,4′-dimethoxybiphenyl-4-sulfonamide], less than 5 µM; as for `CC(C)Oc1ccccc1-c1ccc(C(=O)NCCNc2nsc3ccccc23)cc1` [Compound 377, N-(2-(benzo[d]isothiazol-3-ylamino)ethyl)-2′-isopropoxybiphenyl-4-carboxamide], less than 5 µM.

With `COC(=O)c1cnc(NCCCNc2nsc3ccccc23)nc1C(F)(F)F` [Entry 225, methyl 2-(3-(benzo[d]isothiazol-3-ylamino)propylamino)-4-(trifluoromethyl)pyrimidine-5-carboxylate], the half-inhibitory concentration (IC50) (Table 5, read-out: IC50) is less than 5 µM. In the case of `O=C(NCCNc1nsc2ccccc12)c1ccc(C(F)(F)F)c(F)c1` [Compound 355, N-(2-(benzo[d]isothiazol-3-ylamino)ethyl)-3-fluoro-4-(trifluoromethyl)benzamide], under “Table 5, read-out: IC50”, the IC50 was less than 5 µM.

Turning to `O=S(=O)(NCCCNc1nsc2ccccc12)c1ccc(F)c(F)c1F` [Compound 250, N-(3-(benzo[d]isothiazol-3-ylamino)propyl)-2,3,4-trifluorobenzenesulfonamide], where the note is “Table 5, read-out: IC50”, the half-inhibitory concentration (IC50) is less than 5 µM. Consider `c1ccc2c(NCCCNc3nsc4ccccc34)nsc2c1` [Compound 434, N^1,N^3-di(benzo[d]isothiazol-3-yl)propane-1,3-diamine], for which the half-inhibitory concentration (IC50) (Table 5, read-out: IC50) is less than 5 µM. On to `COc1ccc(-c2ccc(CNCCCNc3nsc4ccc(-c5cc(F)cc(F)c5)cc34)cc2)cc1` [Compound 411, N^1-(5-(3,5-difluorophenyl)benzo[d]isothiazol-3-yl)-N^3-((4′-methoxybiphenyl-4-yl)methyl)propane-1,3-diamine], for which the IC50 (Table 5, read-out: IC50) was less than 5 µM. `O=C(N1CCc2ccc(S(=O)(=O)NCCCNc3nsc4ccccc34)cc2C1)C(F)(F)F` [Compound 252, N-(3-(benzo[d]isothiazol-3-ylamino)propyl)-2-(2,2,2-trifluoroacetyl)-1,2,3,4-tetrahydroisoquinoline-7-sulfonamide] gave a half-maximal inhibitory concentration (IC50) of less than 5 µM. Consider `c1ccc(CNCCCNc2nsc3ccccc23)nc1` [Compound 309, N^1-(benzo[d]isothiazol-3-yl)-N^3-(pyridin-2-ylmethyl)propane-1,3-diamine], for which, under “Table 5, read-out: IC50”, the half-inhibitory concentration (IC50) is more than 5 µM. The same measure, in the same setting: as for `O=S(=O)(NCCCNc1nsc2ccccc12)c1cc(F)c(Br)cc1F` [Entry 221, N-(3-(benzo[d]isothiazol-3-ylamino)propyl)-4-bromo-2,5-difluorobenzenesulfonamide], the figure is less than 5 µM.

As for `O=C(NCCCNc1nsc2ccccc12)c1cccc(-c2ccc(Cl)nc2)c1` [Compound 380, N-(3-(benzo[d]isothiazol-3-ylamino)propyl)-3-(6-chloropyridin-3-yl)benzamide], the IC50 (Table 5, read-out: IC50) is less than 5 µM. The same measure, in the same setting: as for `c1ccc2c(NCCCNCc3ccc(N4CCCC4)cc3)nsc2c1` [Compound 338, N^1-(benzo[d]isothiazol-3-yl)-N^3-(4-(pyrrolidin-1-yl)benzyl)propane-1,3-diamine], the figure is less than 5 µM; as for `COC(=O)c1cnc(NCCCNc2nsc3ccccc23)cc1C(F)(F)F` [Compound 284, methyl 6-(3-(benzo[d]isothiazol-3-ylamino)propylamino)-4-(trifluoromethyl)nicotinate], less than 5 µM. For `N[C@H](C(=O)NCCNc1nsc2ccccc12)c1ccccc1` [Entry 74, (S)-2-Amino-N-(2-(benzo[d]isothiazol-3-ylamino)ethyl)-2-phenylacetamide], for the setting “Table 5, read-out: IC50”, the 50% inhibitory concentration (IC50) is more than 5 µM. The same measure, in the same setting: to `COc1ccc(OC)c(-c2cccc(C(=O)NCCCNc3nsc4ccccc34)c2)c1` [Compound 382, N-(3-(benzo[d]isothiazol-3-ylamino)propyl)-3′,6′-dimethoxybiphenyl-3-carboxamide] belongs less than 5 µM. Regarding `N#Cc1ccc(NCCCNc2nsc3ccccc23)nc1` [Entry 224, 6-(3-(benzo[d]isothiazol-3-ylamino)propylamino)pyridine-3-carbonitrile], the IC50 (Table 5, read-out: IC50) is less than 5 µM. The same measure, in the same setting: as for `COc1ccc(-c2ccc(C(=O)NCCCNc3nsc4c(S(=O)(=O)C(C)(C)C)cccc34)cc2)cc1` [Compound 400, N-(3-(7-(tert-butylsulfonyl)benzo[d]isothiazol-3-ylamino)propyl)-4′-methoxybiphenyl-4-carboxamide], the figure is less than 5 µM; as for `O=S(=O)(NCCCNc1nsc2ccccc12)c1ccc(Br)s1` [Entry 222, N-(3-(benzo[d]isothiazol-3-ylamino)propyl)-5-bromothiophene-2-sulfonamide], less than 5 µM; as for `O=C(c1ccccc1)c1cccnc1C(=O)NCCNc1nsc2ccccc12` [Entry 12, N-(2-(Benzo[d]isothiazol-3-ylamino)ethyl)-3-benzoylpicolinamide], less than 5 µM.

A word on the IC50: it is the concentration needed to halve the response being measured.
